# Literature values, collected in US20200253960A1, “ANTIBIOTIC FORMULATIONS FOR TREATING OF CAVITY INFECTIONS” (ARADIGM CORPORATION, priority 2019, published 2020).
# Tested on: Pseudomonas aeruginosa
# Conditions: cystic fibrosis
compound,measurement,value
CC[C@H]1OC(=O)[C@H](C)[C@@H](O[C@H]2C[C@@](C)(OC)[C@@H](O)[C@H](C)O2)[C@H](C)[C@@H](O[C@@H]2O[C@H](C)C[C@H](N(C)C)[C@H]2O)[C@](C)(O)C[C@@H](C)CN(C)[C@H](C)[C@@H](O)[C@]1(C)O [azithromycin],interaction with inhaled tobramycin,antagonistic against inhaled tobramycin
